{"source": "patent US20100093642A1", "about": "“NOVEL POLYPEPTIDES” (priority 2006, published 2010)", "key": {"[1]": {"test_system": "E. coli K-12", "assay": "Bacterial cell viability, lux luminescence and OD600, with or without LPS", "assay_type": "cell-based, Escherichia coli", "conditions": "co-incubation with 2.5 μM Aeromonas salmonicida LPS", "text": "To evaluate the effect of antimicrobial peptides on the viability of bacteria in a fast and reliable manner we used the lux CDABE operon from Photorhabdus luminescens as a reporter system in gram negative test bacteria and the modified luxABCDE operon in S. aureus (Vesterlund et al. 2004). Bacterial bioluminescence is directly dependent on metabolic activity, since reduction equivalents are needed to drive light emission. Any form of interruption of bacterial cell integrity or metabolism will therefore be detected as a reduction in light emission.\nFor the assay we used S. aureus (RN4220), E. coli K-12 and Salmonella enterica serovar typhimurium (ATCC 14028) transformed with the respective lux-operon containing plasmids (Vesterlund et al. 2004).\nFor each experiment a fresh colony was picked from Luria-Bertani plates supplemented with 10 μg/ml of erythromycin in case of S. aureus and with 100 μg/ml of ampicillin in case of E. coli and S. enterica serovar Typhimurium. Each colony was suspended in 5 ml of Müller-Hinton medium with appropriate antibiotics. The culture was incubated over night at 37° C. in a shaking incubator. The next morning 0.5 ml of this culture was transferred to 30 ml fresh MH medium in an Erlenmeyer-flask supplemented with the respective antibiotic. The flask was incubated (200 rpm shaking; 37° C.) until an OD600 of 0.5-0.8 was reached. The culture was then diluted to an OD600 of about 0.02-0.03 before transfer to the 96 well opaque plates with optical bottom (Packard ViewPlate) used for the assay.\nThe synthesized peptides were dissolved in water and aliquots frozen at −18° C. until use. Twofold dilutions of test peptides (final concentrations ranging from 0.31 to 80 μM) were directly prepared in 96 well microtiter plates in a volume of 10 μl in water. 90 μl is of indicator bacteria in MH medium were added directly to the prepared and pre-warmed (30 minutes at 37° C.) plate before starting the measurement in a Victor multiplate reader (Perkin Elmer) at 37° C. Both OD600 and luminescence in counts per second (cps) were followed over 5 hours in measuring intervals of 5 minutes. The plates where shaken before each measurement (20 sec.; 5 mm orbital shaking; 10 sec waiting). The growth curves and light emission curves were drawn and evaluated to determine the MIC for each indicator strain. The MIC was defined as the concentration of test compound causing more than 50% reduction in bioluminescence (cps) or optical density (OD600) after 5 hours, compared to the growth control. Cecropin P1 was used as positive control. […]\nA second plate with an otherwise similar setup (as described for the luminescence assay in example 3) was prepared, but with addition of Aeromonas salmonicida LPS to the peptide dilutions before pre-warming. […]"}, "[2]": {"test_system": "human breast malignant carcinoma cell line MCF-7", "assay_type": "cell-based", "conditions": "human, 24 h"}, "[3]": {"test_system": "human skin malignant melanoma cell line A2058", "assay_type": "cell-based", "conditions": "human, 24 h"}, "[4]": {"test_system": "C. glutamicum (ATCC 13032)", "assay_type": "cell-based, Corynebacterium glutamicum", "how_it_was_run": "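Peptide fractions were incubated with actively growing bacteria in Mueller Hinton medium at a starting concentration of 3×10^4 cells per ml. Growth was monitored continuously in a Bioscreen C reader; polymyxin B served as reference.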"}}, "note": "Residues, ends and D or L forms follow the SMILES beside them. No end group written: not given here.", "data": [{"molecule": "CC[C@H](C)[C@H](NC(=O)CNC(=O)[C@H](CO)NC(=O)[C@H](CCCCN)NC(=O)[C@@H](NC(=O)[C@H](C)NC(=O)[C@H](Cc1c[nH]cn1)NC(=O)[C@H](CO)NC(=O)[C@@H](NC(=O)[C@H](CCCCN)NC(=O)[C@H](Cc1c[nH]cn1)NC(=O)[C@H](Cc1ccccc1)NC(=O)[C@@H](NC(=O)[C@H](CCCCN)NC(=O)[C@H](CCCCN)NC(=O)[C@H](Cc1ccccc1)NC(=O)C(Cc1c[nH]c2ccc(Br)cc12)NC(=O)CN)[C@@H](C)O)C(C)C)C(C)C)C(=O)N[C@@H](Cc1c[nH]cn1)C(=O)N[C@@H](C)C(=O)O", "note": "(stereo partly shown) [P17 HC-Br (1-20)] (HELM PEPTIDE1{G.[O=C(C(Cc1c[nH]c2ccc(Br)cc12)N[*:1])[*:2]].F.K.K.T.F.H.K.V.S.H.A.V.K.S.G.I.H.A}$$$$V2.0; N-terminus and C-terminus assumed)", "values": [{"measurement": "MIC, more than 50% reduction in optical density, E. coli, P + LPS", "setting": "[1]; OD600, 5 hours", "value": 40, "unit": "µM"}, {"measurement": "MIC, more than 50% reduction in luminescence, E. coli, P + LPS", "setting": "[1]; luminescence (cps), 5 hours", "value": 20, "unit": "µM"}]}, {"molecule": "CC[C@H](C)[C@H](NC(=O)CNC(=O)[C@H](CO)NC(=O)[C@H](CCCCN)NC(=O)[C@@H](NC(=O)[C@H](C)NC(=O)[C@H](Cc1c[nH]cn1)NC(=O)[C@H](CO)NC(=O)[C@@H](NC(=O)[C@H](CCCCN)NC(=O)[C@H](Cc1c[nH]cn1)NC(=O)[C@H](Cc1ccccc1)NC(=O)[C@@H](NC(=O)[C@H](CCCCN)NC(=O)[C@H](CCCCN)NC(=O)[C@H](Cc1ccccc1)NC(=O)C(Cc1c[nH]c2ccc(Br)cc12)NC(=O)CN)[C@@H](C)O)C(C)C)C(C)C)C(=O)N[C@@H](Cc1c[nH]cn1)C(=O)N[C@@H](C)C(=O)NCC(=O)N[C@@H](CCC(N)=O)C(=O)N[C@@H](CCCNC(=N)N)C(=O)NCC(=O)N[C@@H](CS)C(=O)N[C@@H](CO)C(=O)N[C@@H](C)C(=O)N[C@@H](CC(C)C)C(=O)NCC(=O)N[C@@H](Cc1ccccc1)C(=O)O", "note": "(stereo partly shown) [P17 HC-Br] (HELM PEPTIDE1{G.[O=C(C(Cc1c[nH]c2ccc(Br)cc12)N[*:1])[*:2]].F.K.K.T.F.H.K.V.S.H.A.V.K.S.G.I.H.A.G.Q.R.G.C.S.A.L.G.F}$$$$V2.0)", "values": [{"measurement": "IC50", "setting": "[2]", "value": "< 10", "unit": "µM"}, {"measurement": "IC50", "setting": "[3]", "value": "< 10", "unit": "µM"}]}, {"molecule": "GWFKKTFHKVSHAVKSGIHA [P17 HC (1-20)]", "values": [{"measurement": "Minimal inhibitory concentration, C. glutamicum", "setting": "[4]", "value": 1.56, "unit": "µM"}]}, {"molecule": "GWFKKTFHKVSHAVKSGIHAGQRGCSALGF [P17 HC]", "values": [{"measurement": "IC50", "setting": "[2]", "value": "< 10", "unit": "µM"}, {"measurement": "IC50", "setting": "[3]", "value": "< 10", "unit": "µM"}]}]}
